In one experiment the test system is HGGX6 (H3.3 G34R paediatric high-grade glioma line). The experiment can be described thus: EC50 (inflection of fitted growth-inhibition curve) (log10 M). The gist of the method:
(§1)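 Compounds were delivered by pin tool as a 10-point threefold dilution series with a mean top concentration of 35 μM, in triplicate, to patient-derived pHGG/DIPG cell lines and astrocyte controls growing on 1% Geltrex-coated 384-well plates. Incubation lasted 7 days, or 3 days for iAstro, at 37 °C with 5% CO2. EC50 and maximal response (yFin) come from the three- or four-parameter log-logistic fit with the lowest AICc, applied to pooled, log2-transformed CellTiter-Glo luminescence normalised per plate to % activity between solvent (negative) and positive control wells.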

A further experiment deals with HGGX42 (H3.3 G34R paediatric high-grade glioma line). Described as above. The gist of the method: as §1
Experiment [1] deals with SUDIPGVI (diffuse intrinsic pontine glioma line)
Described as above. The gist of the method: as §1

The next experiment concerns DIPGX37 (H3.3 K27M diffuse intrinsic pontine glioma line). Described as above. The procedure, abridged: as §1
Another experiment concerns HABS (astrocyte control). The description is as above. The gist of the method: as §1
For experiment [2], the system named is DIPGX29 (H3.3 K27M diffuse intrinsic pontine glioma line). The experiment is described as above. The gist of the method: as §1
The subject of a further experiment is SUDIPGXIII (diffuse intrinsic pontine glioma line)
Described as above. The procedure, abridged:
as §1

Another experiment relates to SUDIPGXVII (diffuse intrinsic pontine glioma line)
The experiment is described as above. The gist of the method: as §1

The test system of another experiment is SUDIPGXIX (diffuse intrinsic pontine glioma line)
The description is as above. The procedure, abridged:
as §1

The next experiment concerns HGGX39 (paediatric high-grade glioma line). Described as above. The gist of the method:
as §1

The next experiment relates to SUDIPGIV (diffuse intrinsic pontine glioma line)
Described as above. The gist of the method:
as §1

The subject of the next experiment is SUDIPGXXI (diffuse intrinsic pontine glioma line)
The experiment is described as above. The gist of the method:
as §1

The next experiment concerns HGGX2 (paediatric high-grade glioma line). Described as above. The procedure, abridged:
as §1

The next experiment relates to DIPGX7 (H3.3 K27M diffuse intrinsic pontine glioma line). Described as above. The procedure, abridged:
as §1

The next experiment relates to iAstro (astrocyte control). The experiment is described as above. The gist of the method:
as §1

Another experiment deals with DIPGX9 (diffuse intrinsic pontine glioma line). The description is as above. The procedure, abridged: as §1
In experiment [3] the test system is SUDIPGVI
Kind of experiment: area under dose-response curve of % growth inhibition (log2 RLU vs DMSO / staurosporine), 1e-11 to 1e-4 M (% x log10 M); higher = more growth inhibition. The gist of the method:
(§2)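 Area under the curve was derived with the trapezoid rule from a fitted log-logistic curve, switching to a smoothing spline if the sigmoid fit failed. It rested on per-plate % activity between solvent and positive controls, calculated from log2-transformed CellTiter-Glo luminescence after 7 days of exposure (3 days for iAstro) at 37 °C, 5% CO2. Patient-derived pHGG/DIPG lines and astrocytes on 1% Geltrex-coated 384-well plates received a 10-point threefold dilution series, mean top concentration 35 μM, in triplicate.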

Experiment [4] has as its system DIPGX29. The experiment is described as above. The procedure, abridged:
as §2

From the supplement of paper PMC8253809 come the findings set out here.

In the case of `O=C(Nc1c[nH]nc1-c1nc2ccc(CN3CCOCC3)cc2[nH]1)NC1CC1` [AT9283], the “EC50 (log10 M)” value with HGGX6 is -5.15; in the experiment with HGGX42, -5.4; with SUDIPGVI [1], -4.97; with DIPGX37, -4.79; in the experiment on HABS, -5.83; in the experiment with DIPGX29 [2] it was -5.17. Moreover, the “EC50 (log10 M)” value with SUDIPGXIII was -4.79; in the experiment with SUDIPGXVII, -4.95; in the experiment on SUDIPGXIX, -5.33; in the experiment with HGGX39, -6.03; with SUDIPGIV it was -5.66; in the experiment on SUDIPGXXI, -6.69. Besides, the “EC50 (log10 M)” value in the experiment with HGGX2 was -4.91; in the experiment with DIPGX7 it was -4.88; with iAstro, -5.54; in the experiment with DIPGX9 it was -5.66. The entries for the “area under dose-response curve” value in the experiment on SUDIPGVI [3] and in the experiment with DIPGX29 [4] were 97.6 and 150, respectively.
In the case of `CN1CCCN(C(=O)c2cccc(-c3ccc(/C=C4/C(=O)Nc5ccc(Cl)cc54)o3)c2)CC1` [CX-6258], the “EC50 (log10 M)” value is -5.24 in the experiment with HGGX6; -5.75 in the experiment on HGGX42; -5.2 with SUDIPGVI [1]; -5.76 with DIPGX37; -5.1 with HABS; -5.6 in the experiment with DIPGX29 [2]. The “EC50 (log10 M)” value is -5.08 with SUDIPGXIII; -5.25 in the experiment with SUDIPGXVII; -5.48 in the experiment with SUDIPGXIX; -5.28 in the experiment with HGGX39; -5.37 in the experiment on SUDIPGIV; -7.11 with SUDIPGXXI. Moreover, the “EC50 (log10 M)” value is -5.51 with HGGX2, -5.42 in the experiment with DIPGX7, -5.49 in the experiment with iAstro and -5.34 with DIPGX9. Besides, the “area under dose-response curve” value in the experiment on SUDIPGVI [3] is 130; with DIPGX29 [4], 179.
